# Several values for one entry are separate records, joined by “and”; a condition that tells them apart may be missing. Equal values may be shown once. Read-outs that look alike come from different tables or passages of the source.
# Key:
# MDA-MB-453 tumors [1] = test: BIWI 1 combination with capecitabine in nude mice xenografted with MDA-MB-453 tumors; type: in vivo, mouse; conditions: BIWI 1 75 μg/kg DM1 i.v. q7dx3
# Method: The xenograft model MDA-MB-453 was handled as in Section 2.8.
# BIWI 1 solution (protein concentration 2.95 mg/ml, 53.6 μg DM1/ml, 3.7 molecules DM1/molecule antibody) was diluted in PBS to a DM1 concentration of 75 μg/kg body weight. […] The antibody solution was injected into the tail vein with an injection volume of 200 μl for a 25 g mouse. In the control groups without BIWI 1 treatment animals were injected i.v. with PBS. BIWI 1 was given i.v. into the tail vein at a dose of 75 μg DM1/kg once weekly, for three weeks. Capecitabine (150 mg tablets, Roche) was given intragastrically (by gavage needle, as a suspension in water) at a dose of 375 or 500 mg/kg during three weeks on 5 consecutive days per week.
# To assess the efficacy of BIMI 1 in combination with capecitabine, non-curative doses of both drugs were tested as single agents or in combination in nude mice xenografted with MDA-MB453 tumors.
# For the combinations experiments BIWI 1 with 75 μg/kg DM1 was combined with 375 or 500 mg/kg capecitabine.
# [2] = test system: antigen-positive A431 cells; test: In vitro cytotoxicity, MTS/PMS cell proliferation assay, A431; type: cell-based, human; conditions: 4 days exposure
# Method: (§1) For determination of viable cells the Cell Titer 96® AQueous non-radioactive cell proliferation assay (Promega) was used. Five thousand cells per well were seeded into 96-well plates in 90 μl medium without phenole red. Cells were allowed to settle down for 1 to 3 h and then serial dilutions of the immunoconjugate in 10 μl PBS were added. Cells without immunoconjugate served as negative control. Cells were incubated for 4 days at 37° C. in a humified 5% CO2 atmosphere and then 20 μl MTS/PMS were added according to the manufacturer's recommendation. After additional 1 to 4 h incubation at 37° C. the absorbance at 490 nm was recorded using an ELISA plate reader. For each cell line triplicates were analyzed. The percentage of the surviving cell fraction and the IC50 value were calculated using the GraphPad Prism® (Version 3.0) software.
# (§2) The in vitro cytotoxicity of BIWI 1 was evaluated using the antigen-positive cell lines A431 and FaDu, and the antigen-negative cell line […]. Cells were exposed to different concentrations of BIWI 1 for 4 days, then stained with MTS/PMS and assayed on an ELISA plate reader. The surviving fractions of cells were then calculated using the GraphPad Prism® software package.
# [3] = test system: antigen-positive cell line FaDu; test: In vitro cytotoxicity, MTS/PMS cell proliferation assay, FaDu; type: cell-based, human; conditions: FaDu cells, 4 days exposure
# Method: as §1, §2
# A431 tumors = test: BIWI 1 monotherapy in A431 xenografted nude mice; type: in vivo, mouse; conditions: five consecutive days
# Method: (§3) In vivo anti-tumor efficacy of BIWI 1 was tested in three nude mouse xenograft models applying antigen-positive human tumors: A431 (ATCC # CRL 1555; epidermoid carcinoma of the vulva), FaDu (ATCC # HTB 43; squamous cell carcinoma of the pharynx), and MDA-MB 453 (ATCC # HTB-131; breast carcinoma). The cells were received from ATCC and cultured in RPMI1640 medium containing 10% fetal calf serum and supplements. 1×10^6 tumors cells were transplanted subcutaneously into the right flank of 6 week old female NMRI-nu/nu mice. Tumor growth was monitored by measuring tumor size. A tumor response was rated as complete response when the tumor completely disappeared at any time after start of treatment. The response was rated as partial response when the tumor volume decreased after treatment but thereafter started regrowing. The tolerability of the treatment was monitored by measuring mouse weight during the observation period.
# Mice were randomised into the following treatment groups (treatment/initial mean tumor volume/tumor volume range/number of mice): • Group 1: Control (PBS)/185±217 mm^3/19-424 mm^3/5 mice. • Group 2: BIWA 4 (21 mg/kg/d)/133±115 mm^3/42-302 mm^3/5 mice. • Group 3: BIWI 1 (2.1 mg/kg/d)/107±63 mm^3/42-205 mm^3′/5 mice. • Group 4: BIWI 1 (7 mg/kg/d)/132±73 mm^3/42-205 mm^3/5 mice. • Group 5: BIWI 1 (21 mg/kg/d)/107±[…]/42-205 mm^3/5 mice.
# Groups of 5 mice were treated with 2.1 mg/kg/d BIWI 1, 7 mg/kg/d BIWI 1, 21 mg/kg/d BIWI 1, and 21 mg/kg/d control antibody, respectively. Treatment consisted of i.v. injections of BIWI 1 given on five consecutive days, starting at day 1.
# MDA-MB-453 tumors [4] = conditions: BIWI 1 75 μg/kg DM1 i.v. q7dx4
# Method: Experiments were performed using nude mice xenografted subcutaneously with the human breast carcinoma cell line MDA-MBA53. […] The efficacy of these combinations was compared to those of the respective monotherapies by i) analysing the tumor volumes over time and ii) by determining the time for tumors to reach a certain size (tumor growth delay).
# The dilutions were prepared freshly for each application or stored at +4° C. during the whole treatment period. […] 200 μl of solutions with different concentrations were injected into the tail vein. Docetaxel (Taxotere®, Aventis, 10 mg/ml) was diluted in 0.9% NaCl. 200 μl of solutions with different concentrations were injected into the tail vein.
# Briefly, 1×10^7 MDA-MB-453 cells (ATCC No. HTB-131) were injected into the mammary fat pad of female NMRI nu/nu mice. After reaching a volume of approximately 1000 mm^3 tumors were excised, cut into 4×4 mm pieces and passaged further subcutaneously. Tumor fragments were cryoconserved in 90% RPMI 1640/10% dimethylsulfoxide (slow freezing process down to −80° C., storage in liquid nitrogen). For further passaging, frozen tumor fragments were thawed, washed 3 times in PBS and implanted subcutaneously into the right and left flanks of a 4-5 female NMRI nu/nu mice. Tumors of these mice were then used to prepare the animals for a therapy experiment. Tumors were excised with a size of approximately 10 mm in diameter, cut into 2×2 mm pieces and implanted subcutaneously into the right flank of 6-8 week old female NMRI nu/nu mice. Approximately twice as many animals as needed for the experiment were prepared. When tumors reached a size of 5-10 mm in diameter (10-14 days after implantation), animals were randomised and treatments were started. Animals were obtained from Harlan (Germany) or M&B (Denmark). Tumor sizes and body weights were recorded as described in Section 2.7.
# MDA-MB 453 tumors = test: BIWI 1 monotherapy in MDA-MB 453 xenografted mice; type: in vivo, mouse
# Method: as §3
# Groups of 6 mice were treated with 6.25 mg/kg BIWI 1, 12.5 mg/kg BIWI 1, and 25 mg/kg BIWI 1, respectively. Treatment consisted of i.v. injections of BIWI 1 given weekly for four weeks. The average tumor size at start of treatment was 246±/−79 mm^3 (PBS), 216 +/85 mm^3 (6.25 mg/kg BIWI 1), 188±/−79 mm^3 (12.5 mg/kg BIWI 1), and 207±/−96 mm3 (25 mg/kg BIWI 1), respectively. The initial tumor volume doubling time of the control tumors was approximately 5 days. […] Tumors treated with 12.5 mg/kg or 6.25 mg/kg responded completely in 5/6 cases in each dose group, and 4 animals of each group stayed tumor free until the end of the experiment.
# [5] = test system: antigen-positive FaDu cells; test: In vitro binding to FaDu cells (FACS); conditions: 1 hour on ice, FITC-labeled anti-human IgG, read-out: apparent KD
# Method: The binding of BIWA 4 antibody and BIWI 1 conjugate to antigen-positive FaDu cells was determined. Cells ([…]) were incubated in 96-well plates with varying concentrations of antibody or conjugate on ice for 1 hour. The test article was washed from the plate and FITC-labeled anti-human IgG was added and the incubation on ice was continued in the dark for 1 hour. After washing, the cells were fixed with 1% paraformaldehyde and analyzed on a fluorescence activated cell sorter (FACS).
# [6] = 7 mg/kg/d or 21 mg/kg/d BIWI 1 i.v.
# [7] = 25 mg/kg BIWI 1 i.v. weekly for four weeks
substance,measurement,setting,value
BIWI 1,GDF4,MDA-MB-453 tumors [1],2.6
same,T4T,MDA-MB-453 tumors [1],26.9 days
same,T/C (d25),MDA-MB-453 tumors [1],31%
same,IC50,[2],~76 nM
same,IC50,[3],~24 nM
same,tumors with partial response,"A431 tumors; 2.1 mg/kg/d BIWI 1 i.v., 5 mice",2
same,complete responses,"A431 tumors; 2.1 mg/kg/d BIWI 1 i.v., no regrowth until day 134",3/5
same,day on which tumors disappeared,A431 tumors; [6],~17 days
same,tumor regrowth until end of observation period (day 134),A431 tumors; [6],No tumor regrowth
same,tumor response,A431 tumors; [6],all tumors responded completely
same,GDF4,MDA-MB-453 tumors [4],1.3
same,T4T,MDA-MB-453 tumors [4],14 days and 14.1 days
same,T/C (d 16),MDA-MB-453 tumors [4],75%
same,animals tumor free until the end of the experiment,"MDA-MB 453 tumors; 12.5 mg/kg or 6.25 mg/kg BIWI 1, each group of 6 mice",4
same,complete responses,"MDA-MB 453 tumors; 12.5 mg/kg or 6.25 mg/kg BIWI 1 i.v. weekly for four weeks, in each dose group",5/6
same,day on which tumors disappeared,MDA-MB 453 tumors; [7],~22 days
same,tumor regrowth until end of observation period (day 64),MDA-MB 453 tumors; [7],No tumor regrowth
same,tumor response,MDA-MB 453 tumors; [7],all tumors responded completely
same,Kd,[5],1.8 nM
